The values below come from paper PMC11951083, “Highly Specific Miniaturized Fluorescent Monoacylglycerol Lipase Probes Enable Translational Research” (Journal of the American Chemical Society, 2025).

Experiment [1] concerns the target glycine (strychnine-insensitive) (Rattus norvegicus, UniProt P35439). Nature of the experiment: glycine (strychnine-insensitive) (antagonist radioligand). As to conditions: read-out: Inhibition glycine (strychnine-insensitive) (antagonist radioligand).
For another experiment, the target named is T1, 5-HT1A (h) (Homo sapiens, UniProt P08908).
T1 sequence (P08908 1-422): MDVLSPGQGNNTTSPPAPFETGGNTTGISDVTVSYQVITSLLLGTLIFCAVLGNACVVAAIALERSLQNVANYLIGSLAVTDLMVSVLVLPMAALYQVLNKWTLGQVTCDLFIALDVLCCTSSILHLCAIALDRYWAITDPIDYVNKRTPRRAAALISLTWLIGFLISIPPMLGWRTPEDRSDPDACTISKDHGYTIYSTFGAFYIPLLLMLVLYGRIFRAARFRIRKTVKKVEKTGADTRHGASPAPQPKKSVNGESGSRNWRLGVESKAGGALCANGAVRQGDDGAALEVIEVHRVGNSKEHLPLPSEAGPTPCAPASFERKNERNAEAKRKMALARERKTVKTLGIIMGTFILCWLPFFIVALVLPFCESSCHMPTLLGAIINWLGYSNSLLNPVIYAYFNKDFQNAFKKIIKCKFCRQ
Nature of the experiment: 5-HT1A (h) (agonist radioligand). As to conditions: read-out: Inhibition 5-HT1A (h) (agonist radioligand).

The target in a further experiment is T2, COX2(h) (Homo sapiens, UniProt P35354).
T2 sequence (P35354 18-604): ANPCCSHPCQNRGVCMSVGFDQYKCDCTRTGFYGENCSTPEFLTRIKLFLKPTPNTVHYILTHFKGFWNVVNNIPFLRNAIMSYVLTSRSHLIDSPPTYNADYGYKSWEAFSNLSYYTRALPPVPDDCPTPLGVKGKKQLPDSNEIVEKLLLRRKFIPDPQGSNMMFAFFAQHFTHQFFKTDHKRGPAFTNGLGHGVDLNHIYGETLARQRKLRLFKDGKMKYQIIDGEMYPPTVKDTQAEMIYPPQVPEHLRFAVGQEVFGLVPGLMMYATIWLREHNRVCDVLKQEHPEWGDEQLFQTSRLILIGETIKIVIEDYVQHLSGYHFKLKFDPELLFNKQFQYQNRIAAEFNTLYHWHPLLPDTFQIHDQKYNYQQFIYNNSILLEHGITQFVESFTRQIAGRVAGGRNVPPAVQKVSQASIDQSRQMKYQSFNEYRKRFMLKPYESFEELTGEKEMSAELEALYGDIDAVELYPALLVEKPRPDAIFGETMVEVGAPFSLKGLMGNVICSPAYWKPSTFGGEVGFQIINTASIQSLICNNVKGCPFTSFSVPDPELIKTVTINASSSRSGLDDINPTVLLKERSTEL
The experiment is described as follows: COX2(h). As to conditions: read-out: Inhibition COX2(h).

The target in the next experiment is H1 (h) (Homo sapiens, UniProt P35367). The experiment is described as follows: H1 (h) (antagonist radioligand). As to conditions: read-out: Inhibition H1 (h) (antagonist radioligand).
Chain of H1 (h) (P35367 whole entry): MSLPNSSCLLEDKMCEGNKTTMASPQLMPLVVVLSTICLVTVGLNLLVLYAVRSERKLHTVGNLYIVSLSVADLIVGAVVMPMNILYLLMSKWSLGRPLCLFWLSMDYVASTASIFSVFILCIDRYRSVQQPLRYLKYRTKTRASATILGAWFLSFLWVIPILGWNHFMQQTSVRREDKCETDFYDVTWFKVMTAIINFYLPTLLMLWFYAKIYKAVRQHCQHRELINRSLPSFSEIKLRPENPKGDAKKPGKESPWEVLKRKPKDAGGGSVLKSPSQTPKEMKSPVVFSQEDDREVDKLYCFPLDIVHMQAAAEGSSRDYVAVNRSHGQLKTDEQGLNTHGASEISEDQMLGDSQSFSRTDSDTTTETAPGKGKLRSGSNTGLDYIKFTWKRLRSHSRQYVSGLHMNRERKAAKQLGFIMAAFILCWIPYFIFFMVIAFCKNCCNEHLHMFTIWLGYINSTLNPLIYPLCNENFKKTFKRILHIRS
Another experiment deals with T3, PPARgamma (h) (Homo sapiens, UniProt P37231).
T3 sequence (P37231 1-505): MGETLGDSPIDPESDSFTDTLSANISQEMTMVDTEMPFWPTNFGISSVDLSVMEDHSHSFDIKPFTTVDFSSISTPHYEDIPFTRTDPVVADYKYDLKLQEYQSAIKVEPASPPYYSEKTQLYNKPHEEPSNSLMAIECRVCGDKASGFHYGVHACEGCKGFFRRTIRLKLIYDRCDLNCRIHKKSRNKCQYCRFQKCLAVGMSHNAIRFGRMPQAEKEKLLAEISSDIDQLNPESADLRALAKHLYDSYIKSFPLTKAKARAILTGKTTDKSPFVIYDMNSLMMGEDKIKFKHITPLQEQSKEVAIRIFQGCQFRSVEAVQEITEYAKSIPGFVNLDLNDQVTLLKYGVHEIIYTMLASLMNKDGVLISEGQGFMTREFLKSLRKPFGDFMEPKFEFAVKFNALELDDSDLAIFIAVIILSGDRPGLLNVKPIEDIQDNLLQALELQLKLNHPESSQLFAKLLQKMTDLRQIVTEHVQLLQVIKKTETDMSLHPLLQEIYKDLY
Nature of the experiment: PPARgamma (h) (agonist radioligand). As to conditions: read-out: Inhibition PPARgamma (h) (agonist radioligand).

The next experiment has as its target PDE4D2 (h) (Homo sapiens, UniProt Q08499). The experiment is described as follows: PDE4D2 (h). Particulars: read-out: Inhibition PDE4D2 (h).
The subject of a further experiment is Cl- channel (GABA-gated). Nature of the experiment: Cl- channel (GABA-gated) (antagonist radioligand). Particulars: 10 µM.
The target in another experiment is T4, 5-HT3 (h) (Homo sapiens, UniProt P46098).
T4 sequence (P46098 24-478): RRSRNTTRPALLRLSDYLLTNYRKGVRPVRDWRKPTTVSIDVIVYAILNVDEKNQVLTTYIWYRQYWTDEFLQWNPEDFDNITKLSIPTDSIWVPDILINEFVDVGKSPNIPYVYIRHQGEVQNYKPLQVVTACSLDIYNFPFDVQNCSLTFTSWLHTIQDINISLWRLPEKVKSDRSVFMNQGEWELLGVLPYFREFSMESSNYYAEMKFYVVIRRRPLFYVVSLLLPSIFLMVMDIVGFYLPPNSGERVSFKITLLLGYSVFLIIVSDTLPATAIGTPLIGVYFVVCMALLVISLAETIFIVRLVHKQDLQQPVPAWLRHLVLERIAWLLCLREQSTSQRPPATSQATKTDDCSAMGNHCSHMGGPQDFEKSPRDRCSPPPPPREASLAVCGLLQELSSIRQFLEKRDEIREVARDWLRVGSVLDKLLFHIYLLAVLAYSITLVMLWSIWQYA
Nature of the experiment: 5-HT3 (h) (antagonist radioligand). As to conditions: read-out: Inhibition 5-HT3 (h) (antagonist radioligand).

A further experiment addresses mu (MOP) (h) (Homo sapiens, UniProt P35372). The experiment is described as follows: mu (MOP) (h) (agonist radioligand). As to conditions: read-out: Inhibition mu (MOP) (h) (agonist radioligand).

Chain of glycine (strychnine-insensitive) (P35439 394-800): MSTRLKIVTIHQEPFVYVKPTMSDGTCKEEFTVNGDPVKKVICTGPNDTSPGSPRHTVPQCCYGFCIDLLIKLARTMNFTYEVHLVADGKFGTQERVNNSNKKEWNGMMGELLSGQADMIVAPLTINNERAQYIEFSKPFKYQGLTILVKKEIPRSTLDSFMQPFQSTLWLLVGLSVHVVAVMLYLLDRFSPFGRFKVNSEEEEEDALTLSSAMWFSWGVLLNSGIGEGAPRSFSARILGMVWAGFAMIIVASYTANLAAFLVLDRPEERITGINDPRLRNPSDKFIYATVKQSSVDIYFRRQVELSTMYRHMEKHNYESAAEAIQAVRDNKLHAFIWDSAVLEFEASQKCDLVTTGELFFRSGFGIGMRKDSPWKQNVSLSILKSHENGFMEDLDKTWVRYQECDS
Chain of mu (MOP) (h) (P35372 whole entry): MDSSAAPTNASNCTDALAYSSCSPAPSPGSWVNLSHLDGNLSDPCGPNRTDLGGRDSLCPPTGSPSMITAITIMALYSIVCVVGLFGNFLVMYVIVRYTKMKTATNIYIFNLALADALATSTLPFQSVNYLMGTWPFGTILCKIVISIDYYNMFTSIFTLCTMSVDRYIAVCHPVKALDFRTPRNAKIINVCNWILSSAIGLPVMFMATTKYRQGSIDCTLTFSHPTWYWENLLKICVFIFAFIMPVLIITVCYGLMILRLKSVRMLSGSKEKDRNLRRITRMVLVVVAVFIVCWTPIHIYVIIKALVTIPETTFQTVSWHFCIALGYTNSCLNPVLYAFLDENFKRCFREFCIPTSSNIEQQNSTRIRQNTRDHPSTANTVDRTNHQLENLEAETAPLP
Chain of PDE4D2 (h) (Q08499 303-809 limits assumed): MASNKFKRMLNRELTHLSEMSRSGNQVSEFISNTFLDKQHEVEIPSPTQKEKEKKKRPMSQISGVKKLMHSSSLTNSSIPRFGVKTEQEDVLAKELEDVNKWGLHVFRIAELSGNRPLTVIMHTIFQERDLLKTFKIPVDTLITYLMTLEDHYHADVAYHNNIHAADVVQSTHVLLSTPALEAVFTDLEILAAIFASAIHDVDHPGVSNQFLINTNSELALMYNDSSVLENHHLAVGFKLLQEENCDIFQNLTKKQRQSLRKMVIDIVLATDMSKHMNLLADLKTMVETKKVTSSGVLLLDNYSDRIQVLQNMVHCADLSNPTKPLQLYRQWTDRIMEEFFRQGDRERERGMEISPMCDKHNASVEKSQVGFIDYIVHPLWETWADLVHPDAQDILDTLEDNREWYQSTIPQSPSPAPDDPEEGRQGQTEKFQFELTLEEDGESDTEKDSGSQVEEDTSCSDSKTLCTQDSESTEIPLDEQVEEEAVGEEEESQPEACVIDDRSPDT

What is called inhibition is the drop in the measured response relative to a control, in per cent. With `O=C(O[C@H](CO)C(F)(F)F)N1CC2(CC(CC3=C4C=CC=[N+]4[B-](F)(F)n4cccc43)C2)C1` [Compound 1], the inhibition at 10 µM is -6.7% in experiment [1]; 0% at 5-HT1A (h); 45.5% at COX2(h); 30.4% on H1 (h); 74.3% at PPARgamma (h); 18% at PDE4D2 (h). Also, the figures for the inhibition at 10 µM at 5-HT3 (h) and at mu (MOP) (h) were 7.4% and 4%, respectively. Also, in the experiment with Cl- channel (GABA-gated), the “Inhibition Cl- channel (GABA-gated) (antagonist radioligand)” value (“Inhibition Cl- channel (GABA-gated)” for short) is 41,90%.
With `O=C1CO[C@H]2CCN(C(=O)N3CC4(CC(CC5=C6C=CC(c7ccc[nH]7)=[N+]6[B-](F)(F)n6cccc65)C4)C3)C[C@H]2N1` [Compound 4a], the inhibition at 10 µM was 3.1% in experiment [1]; -2.4% at 5-HT1A (h); 48.9% on COX2(h); 1.3% on H1 (h); 20% on PPARgamma (h); 10.8% on PDE4D2 (h). The inhibition at 10 µM at 5-HT3 (h) was 1.1%; at mu (MOP) (h) it was 11%. Further, the “Inhibition Cl- channel (GABA-gated)” value with Cl- channel (GABA-gated) is recorded as 40,30%.
For `O=C(OC(C(F)(F)F)C(F)(F)F)N1CC2(CC(CC3=C4C=CC=[N+]4[B-](F)(F)n4cccc43)C2)C1` [Compound 2], the inhibition at 10 µM in [1] was 6.5%; at 5-HT1A (h), -29.4%; at COX2(h), 31.9%; on H1 (h) it was 5.5%; on PPARgamma (h), 56.3%; at PDE4D2 (h), -0.6%. In addition, the inhibition at 10 µM at 5-HT3 (h) was -5.6%; on mu (MOP) (h), -0.4%. Moreover, the “Inhibition Cl- channel (GABA-gated)” value in the experiment with Cl- channel (GABA-gated) was 51,90%.
Turning to `O=C(N1CC2(CC(CC3=C4C=CC=[N+]4[B-](F)(F)n4cccc43)C2)C1)N1CC2(CC(n3cnc(C4CC4)n3)C2)C1` [Compound 5], the inhibition at 10 µM in experiment [1] is -20.3%; at 5-HT1A (h) it was 2.4%; at COX2(h), 23.8%; on H1 (h) it was 51.5%; at PPARgamma (h) it was 5.6%; on PDE4D2 (h), 11.3%. The inhibition at 10 µM at 5-HT3 (h) turned out to be 1.4%; on mu (MOP) (h), 8.5%. In addition, the “Inhibition Cl- channel (GABA-gated)” value in the experiment with Cl- channel (GABA-gated) is listed as 20,90%.
Consider `O=C(OC(C(F)(F)F)C(F)(F)F)N1CC2(CC(CC3=C4C=CC(c5ccc[nH]5)=[N+]4[B-](F)(F)n4cccc43)C2)C1` [Compound 2a], for which the inhibition at 10 µM in experiment [1] is -2%; at 5-HT1A (h), -5.5%; at COX2(h), 49.5%; at H1 (h), 4.4%; on PPARgamma (h), 20%; on PDE4D2 (h) it was -10.8%. The inhibition at 10 µM came to 4.7% at 5-HT3 (h) and 7.6% on mu (MOP) (h). In the experiment with Cl- channel (GABA-gated), the “Inhibition Cl- channel (GABA-gated)” value is given as 40,80%.
